Laboratory results taken from patent US8293729B2 (Boehringer Ingelheim International GmbH, priority 2009, dated 2012).
Where two headings read alike, the source gives them in different places.

Target: T1, human GPR119 receptor (Homo sapiens, UniProt Q8TDV5, S329A/T327A)
T1 construct: N-terminal leader […]; expressed in transfected cells
T1 sequence (Q8TDV5 with tags, fused parts or gaps T327A/S329A): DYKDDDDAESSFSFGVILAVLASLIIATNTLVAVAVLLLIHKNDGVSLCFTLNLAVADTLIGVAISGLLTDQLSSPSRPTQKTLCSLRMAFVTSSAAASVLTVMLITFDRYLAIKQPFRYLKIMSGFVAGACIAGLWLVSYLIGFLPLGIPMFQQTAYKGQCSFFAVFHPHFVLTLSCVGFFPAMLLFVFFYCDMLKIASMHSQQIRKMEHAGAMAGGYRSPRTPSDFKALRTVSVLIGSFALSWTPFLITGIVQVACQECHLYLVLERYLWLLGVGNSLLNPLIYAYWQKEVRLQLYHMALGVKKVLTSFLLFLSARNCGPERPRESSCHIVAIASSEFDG
Assay: cAMP assay (LANCE cAMP-384) in HEK293 cells stably expressing mutant human GPR119 receptor
Type: cell-based
Conditions: for activation at 10 µM: HEK293, 20 min, read-out: stimulation in % at 10 μM
Method in brief: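 Agonist EC50 came from nonlinear regression over 12 concentrations (30 μM–100 pM), with % stimulation at 10 μM where no EC50 was obtained. Cells: stable HEK293 with mutant human GPR119 (T327A/S329A), 20 min compound at 37° C; cAMP read by LANCE kit with standard curve.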

[1] = the 19th table, unit inferred, read-out: EC 50
[2] = the 36th table, compounds 66-1 to 66-51, read-out: EC50
[3] = cAMP accumulation, HEK293 cells stably expressing mutant human GPR119, read-out: EC50
[4] = the 43rd table, compounds 75-1 to 75-38, read-out: EC50
[5] = the 34th table, compounds 65-1 to 65-24, read-out: EC50
[6] = the 44th table, compounds 77-1 to 77-14, read-out: EC50

`CCc1cnc(N2CCC(ON=C3CCN(c4cc(F)c(C(=O)N5CCNC[C@@H]5C)cc4F)CC3)CC2)nc1` [Example 29-110] was tested, and the EC50 [1] was 256 nM.
`CCc1cnc(N2CCC(ON=C3CCN(c4cc(F)c(C(=O)NCC5CCNC5)cc4F)CC3)CC2)nc1` (stereo not drawn) [Example 29-90] showed an EC50 [1] of 67 nM.
`Cc1ccc(CN2CCC(ON=C3CCN(c4ccc(S(C)(=O)=O)cc4F)CC3)CC2)cc1` [Example 66-26] showed an EC50 [2] of 288 nM.
For `CC(C)OC(=O)N1CCC(ON=C2CCN(c3cc(F)c(CNS(N)(=O)=O)cc3F)CC2)CC1` [Example 17-1], the EC50 [3] was 312 nM.
`CC(C)OC(=O)N1CCC(ON=C2CCN(c3cc(F)c(CC(=O)N4CCC(CN5CCCC5)CC4)cc3F)CC2)CC1` [Example 75-34] showed an EC50 [4] of 146 nM.
`CC(C)OC(=O)CN1CCC(ON=C2CCN(c3ccc(S(C)(=O)=O)cc3F)CC2)CC1` [Example 65-3] gave an activation at 10 µM (printed in EC50 column of the 34th table) of 64%.
For `COc1ccc(CN2CCC(ON=C3CCN(c4ccc(S(C)(=O)=O)cc4F)CC3)CC2)c(F)c1` [Example 66-50], the EC50 [2] was 1010 nM.
In the case of `CC(C)OC(=O)N1CCC(ON=C2CCN(c3ccc(C=O)c(O)c3)CC2)CC1` [Example 2-30], the EC50 [3] is reported as over 10000 nM.
Molecule `Cc1ccc(N2CCC(ON=C3CCN(c4ccc(S(C)(=O)=O)cc4F)CC3)CC2)nc1` [Example 67-1, 1-(2-Fluoro-4-methanesulfonyl-phenyl)-piperidin-4-one O-(5′-methyl-3,4,5,6-tetrahydro-2H-[1,2′]bipyridinyl-4-yl)-oxime] has an EC50 (the 39th table, compounds 67-1 to 67-3, read-out: EC50) of 386 nM.
Molecule `CS(=O)(=O)c1ccc(N2CCC(=NOC3CCN(c4ncc(Br)cc4F)CC3)CC2)c(F)c1` [Example 63-25] has an EC50 (the 32nd table, read-out: EC50) of 195 nM.
For `CC(C)OC(=O)N1CCC(ON=C2CCN(c3c(F)c(F)c(C(N)=O)c(F)c3F)CC2)CC1` [Example 2-57], the EC50 [3] was 56 nM.
`CC(C)OC(=O)N1CCC(ON=C2CCN(c3cc(F)c(CC(=O)NC4CCCNC4)cc3F)CC2)CC1` (stereo not drawn) [Example 75-16] was tested, and the EC50 [4] was 122 nM.
Molecule `CC(C)OC(=O)N1CCC(ON=C2CCN(c3ncc(F)cc3F)CC2)CC1` [Example 2-69] has an EC50 [3] of 1020 nM.
With `CC(C)OC(=O)N1CCC(ON=C2CCN(c3cc(F)c(Cn4nccn4)cc3F)CC2)CC1` [Example 14-13] the EC50 [3] was 16 nM.
With `Cc1cc(CN2CCC(ON=C3CCN(c4ccc(S(C)(=O)=O)cc4F)CC3)CC2)n(C)n1` [Example 66-13] the EC50 [2] was over 10000 nM.
With `CC(C)OC(=O)N1CCC(ON=C2CCN(c3cc(F)c([S+](C)[O-])cc3F)CC2)CC1` (stereo not drawn) [Example 2-41] the EC50 [3] was 58 nM.
For `CC(C)OC(=O)N1CCC(ON=C2CCN(c3ncc(-n4cncn4)cc3F)CC2)CC1` [Example 51-1, 4-(3′-Fluoro-5′-[1,2,4]triazol-1-yl-2,3,5,6-tetrahydro-[1,2]bipyridinyl-4-ylideneaminooxy)-piperidine-1-carboxylic acid isopropyl ester], the EC50 (the 28th table, read-out: EC50) was 327 nM.
In the case of `[2H]C([2H])(O)c1cc(F)c(N2CCC(=NOC3CCN(C(=O)OC(C)C)CC3)CC2)cc1F` [Example 48-2], the EC50 (the 27th table, read-out: EC50) is reported as 18 nM.
`CC(=O)N(C)Cc1cc(F)c(N2CCC(=NOC3CCN(C(=O)OC(C)C)CC3)CC2)cc1F` [Example 18-1, 4-(1-{4-[(Acetyl-methyl-amino)-methyl]-2,5-difluoro-phenyl}-piperidin-4-ylideneaminooxy)-piperidine-1-carboxylic acid isopropyl ester] showed an EC50 [3] of 127 nM.
Molecule `CC(C)OC(=O)N1CCC(ON=C2CCN(c3cc(F)c(Cn4cccc4)cc3F)CC2)CC1` [Example 14-14] has an EC50 [3] of 467 nM.
In the case of `CC(C)OC(=O)N1CCC(ON=C2CCN(c3cc(F)c(CC(=O)NCCN)cc3F)CC2)CC1` [Example 75-24], the EC50 [4] is reported as 410 nM.
In the case of `Cc1ccc(-c2cc(F)c(N3CCC(=NOC4CCN(C(=O)OC(C)C)CC4)CC3)cc2F)s1` [Example 27-23], the EC50 [3] is reported as 274 nM.
Work on `CC[C@H](C)COC(=O)N1CCC(ON=C2CCN(c3ccc(S(C)(=O)=O)cc3F)CC2)CC1` [Example 64-48] yielded an EC50 (the 33rd table, read-out: EC50) of 54 nM.
In the case of `CC(C)OC(=O)N1CCC(ON=C2CCN(c3cc(F)c(CNCCF)cc3F)CC2)CC1` [Example 5-9], the EC50 [3] is reported as 703 nM.
`CCc1cnc(N2CCC(ON=C3CCN(c4cc(F)c(C(=O)N5CCCC(CNC)C5)cc4F)CC3)CC2)nc1` (stereo not drawn) [Example 29-129] showed an EC50 [1] of 50 nM.
`CC(C)OC(=O)N1CCC(ON=C2CCN(c3cc(F)c(-c4c[nH]cn4)cc3F)CC2)CC1` [Example 27-14] showed an EC50 [3] of 152 nM.
`COCc1cc(F)c(N2CCC(=NOC3CCN(C(=O)OC(C)C)CC3)CC2)cc1F` [Example 49-1, 4-[1-(2,5-Difluoro-4-methoxymethyl-phenyl)-piperidin-4-ylideneaminooxy]-piperidine-1-carboxylic acid isopropyl ester] was tested, and the EC50 [3] was 265 nM.
`CC(C)COC(=O)N1CCC(ON=C2CCN(c3ccc(S(C)(=O)=O)cc3F)CC2)CC1` [Example 65-13] gave an EC50 [5] of 82 nM.
Work on `CC(C)(C)NC(=O)N1CCC(ON=C2CCN(c3ccc(S(C)(=O)=O)cc3F)CC2)CC1` [Example 65-11] yielded an EC50 [5] of 1040 nM.
Work on `CC(C)OC(=O)N1CCC(ON=C2CCN(c3ccc(CO)cc3)CC2)CC1` [Example 2-53] yielded an EC50 [3] of over 10000 nM.
Molecule `CC(C)OC(=O)N1CCC(ON=C2CCN(c3cc(F)c(CC(=O)N4CCNCC4)cc3F)CC2)CC1` [Example 75-25] has an EC50 [4] of 92 nM.
With `CCc1cnc(N2CCC(ON=C3CCN(c4cc(F)c(CC(=O)NC5CCN(C)CC5)cc4F)CC3)CC2)nc1` [Example 77-1, 2-(4-{4-[1-(5-ethyl-pyrimidin-2-yl)-piperidin-4-yloxyimino]-piperidin-1-yl}-2,5-difluoro-phenyl)-N-(1-methyl-piperidin-4-yl)-acetamide] the EC50 [6] was 76 nM.
With `CC(C)OC(=O)N1CCC(ON=C2CCN(c3ncc(-n4cncn4)cn3)CC2)CC1` [Example 51-4] the EC50 (the 28th table, read-out: EC50) was 735 nM.
`CNC(=O)c1cc(F)c(N2CCC(=NOC3CCN(Cc4ccc(Cl)cc4)CC3)CC2)cc1F` [Example 66-68] gave an EC50 (the 38th table, compounds 66-65 to 66-72, read-out: EC50) of 365 nM.
Molecule `CN1CCCC1CCOC(=O)N1CCC(ON=C2CCN(c3ccc(S(C)(=O)=O)cc3F)CC2)CC1` (stereo not drawn) [Example 64-27] has an EC50 (the 33rd table, read-out: EC50) of over 10000 nM.
In the case of `CC(C)OC(=O)N1CCC(ON=C2CCN(c3cc(F)ccc3F)CC2)CC1` [Example 32-2], the EC50 [3] is reported as 2860 nM.
Molecule `CC(C)OC(=O)N1CCC(ON=C2CCN(c3ccc(S(C)(=O)=O)cn3)CC2)CC1` [Example 46-3] has an EC50 (the 26th table, read-out: EC50) of 614 nM.
`CC(C)OC(=O)N1CCC(ON=C2CCN(c3cc(F)c(CN4CCN(C)C4=O)cc3F)CC2)CC1` [Example 15-2] showed an EC50 [3] of 282 nM.
`CS(=O)(=O)c1ccc(N2CCC(=NOC3CCN(Cc4ncc[nH]4)CC3)CC2)c(F)c1` [Example 66-2] gave an EC50 [2] of over 10000 nM.
Work on `COC(=O)[C@@H](C)COC(=O)N1CCC(ON=C2CCN(c3ccc(S(C)(=O)=O)cc3F)CC2)CC1` [Example 64-24] yielded an EC50 (the 33rd table, read-out: EC50) of 708 nM.
Molecule `CC(C)[C@@H](N)COC(=O)N1CCC(ON=C2CCN(c3ccc(S(C)(=O)=O)cc3F)CC2)CC1` [Example 64-44] has an EC50 (the 33rd table, read-out: EC50) of over 10000 nM.
`CCc1cnc(N2CCC(ON=C3CCN(c4cc(F)c(C(=O)NC5CNC5)cc4F)CC3)CC2)nc1` [Example 29-116] showed an EC50 [1] of 322 nM.
`CS(=O)(=O)c1ccc(N2CCC(=NOC3CCN(Cc4ccccc4)CC3)CC2)c(F)c1` [Example 66-15] gave an EC50 [2] of 982 nM.
Work on `CC(C)OC(=O)N1CCC(ON=C2CCN(c3cc(F)c(CNCc4nccs4)cc3F)CC2)CC1` [Example 5-11] yielded an EC50 [3] of 332 nM.
`CC(C)OC(=O)N1CCC(ON=C2CCN(c3ccncc3)CC2)CC1` [Example 2-9] gave an EC50 [3] of over 10000 nM.
`Cc1ccc(CN2CCC(ON=C3CCN(c4ccc(S(C)(=O)=O)cc4F)CC3)CC2)c(F)c1` [Example 66-47] gave an EC50 [2] of 909 nM.
In the case of `CS(=O)(=O)c1ccc(N2CCC(=NOC3CCN(Cc4ccccc4C(F)(F)F)CC3)CC2)c(F)c1` [Example 66-29], the EC50 [2] is reported as 1220 nM.
With `CC(C)OC(=O)N1CCC(ON=C2CCN(c3cc(F)c(CC(=O)N4CCCC(CN(C)C)C4)cc3F)CC2)CC1` (stereo not drawn) [Example 75-37] the EC50 [4] was 155 nM.
`COc1ccc(CN2CCC(ON=C3CCN(c4ccc(S(C)(=O)=O)cc4F)CC3)CC2)cc1` [Example 66-45] showed an EC50 [2] of 6000 nM.
Molecule `CC(C)Oc1ccc(CN2CCC(ON=C3CCN(c4ccc(S(C)(=O)=O)cc4F)CC3)CC2)cc1` [Example 66-40] has an EC50 [2] of 332 nM.
`CC(C)OC(=O)N1CCC(ON=C2CCN(c3cc(F)c(C(=O)N4CCNCC4)cc3F)CC2)CC1` [Example 29-3] showed an EC50 (the 15th table, read-out: EC50) of 512 nM.
For `CN(C)CCCCOC(=O)N1CCC(ON=C2CCN(c3ccc(S(C)(=O)=O)cc3F)CC2)CC1` [Example 64-21], the EC50 (the 33rd table, read-out: EC50) was over 10000 nM.
Work on `CC(C)OC(=O)N1CCC(ON=C2CCN(c3ncc([N+](=O)[O-])s3)CC2)CC1` [Example 2-13] yielded an EC50 [3] of 5110 nM.
Work on `CC(C)OC(=O)N1CCC(ON=C2CCN(c3ccc(I)cn3)CC2)CC1` [Example 2-12] yielded an EC50 [3] of 2360 nM.
For `CS(=O)(=O)c1ccc(N2CCC(=NOC3CCN(Cc4nccs4)CC3)CC2)c(F)c1` [Example 66-6], the activation at 10 µM (printed in EC50 column of the 36th table) was 63%.
`CCc1cnc(N2CCC(ON=C3CCN(c4cc(F)c(CC(=O)N5CC[C@H](N(C)C)C5)cc4F)CC3)CC2)nc1` [Example 77-5] was tested, and the EC50 [6] was 6 nM.
Work on `COC(=O)c1nc(Cl)c(N2CCC(=NOC3CCN(C(=O)OC(C)C)CC3)CC2)nc1N` [Example 2-34] yielded an EC50 [3] of over 10000 nM.
